The nature of series [1]: Human liver microsome clearance / stability. The class given is in vitro ADME. Particulars: human liver microsomes. An excerpt:
Human liver microsome clearance (mL/min/kg) may be measured according to the method described by Ackley et al, “Metabolic Stability Assessed by Liver Microsomes and Hepatocytes”, in “Optimization in Drug Discovery” in the “Methods in Pharmacology and Toxicology” series (ISSN 1557-2153), pp. 151-162 (Yan, Ed., Print ISBN 978-1-58829-332-9, Springer (2004), as well as by using commercially available assay kits by Cerep, Cyprotex, Bd Bioscience and others.
Human liver microsome HLM stability may be measured as using the procedure of Ackley et al. as described above.

A short description of series [2]: Aqueous solubility (K. Sol). Type of series: physicochemical. The settings on record: aqueous medium (not further specified), kinetic from dmso stock; read-out: K. Sol (estimated aqueous solubility). An excerpt:
Aqueous solubility may be determined using the procedures reported by Alsenz et al., “High throughput solubility measurement in drug discovery and development,” Advanced Drug Delivery Reviews (2007) 59, 546-568 and Kibbey et al., “An Integrated Process for Measuring the Physicochemical Properties of Drug Candidates in a Preclinical Discovery Environment,” J. Pharmaceutical Sci. (2001) 90(8), 1164-1175.

For series [3], the target named is T1, human TRPA1 (Homo sapiens, UniProt O75762).
T1 construct: expressed in transfected cells; host or cells: CHO cells
As to the kind of experiment: FLIPR Tetra calcium influx assay, CHO cells expressing TRPA1, cinnamaldehyde agonist (hTRPA1 CHO Ca2+ AUC EVO). The class given is cell-based. As to the method: The IC50 ([…]) of compounds on the human and rat TRPA1 channels were determined using a FLIPR Tetra instrument. CHO cells expressing TRPA1 were plated into 384-well plates, incubated overnight at 37° C., and loaded with BD calcium indicator dye for 1 hr at 37° C. followed by 15 minutes at room temperature. The assay buffer was Hank's Balanced Salt Solution (HBSS) containing 20 mM HEPES (pH readjusted to 7.4) along with 0.02% BSA.
Following dye load and plate cool down, compounds were added to the cells using FLIPR Tetra. Plates were then incubated with compounds for 20 minutes at room temperature prior to adding agonist. Following this incubation, about an EC80 concentration of cinnamaldehyde (75 uM for human TRPA1 and 45 uM for rat TRPA1) was added to active the channels and block of cinnamaldehyde induced calcium influx was measured.
The IC50 results were fit with a standard Hill function, keeping the Hill coefficient (n) fixed to 1.5. Fixing the Hill coefficient will generally reduce variability of the IC50 determination. The IC50 results were individually examined to make sure the MIN and MAX points were set correctly prior to validation of the results.

The nature of series [4]: Human protein plasma binding. The class given is in vitro ADME. The settings on record: read-out: hPPB (human protein plasma binding) (converted). On the procedure: Certain pharmacokinetic attributes were evaluated for sulfonyl pyridyl compounds of the present disclosure. The results are shown in Table 3 below where: “hTRPA1” refers to IC50 in nM; “hPPB” refers to human protein plasma binding in percent; “Corrected IC50” refers to the hTRPA1 values corrected for hPPB; “HLM-CLhep” refers to human liver microsome clearance in mL/min/kg; “K.Sol” refers to estimated aqueous solubility in μM; and “NR” refers to not run.
Human protein plasma binding may be measured according to the methods described by Banker et al., “Plasma/Serum Protein Binding Determinations,” Current Drug Metabolism (2008), 9, 854-859, and Kariv et al., “Development of a high throughput equilibrium dialysis method,” J. Pharm Sci. (2001) May; 90(5):580-87, as well as using commercially available assay kits by Wyatt, Cerep, Cyprotex and others.

Series [5] concerns the target T1, human TRPA1. As to the kind of experiment: Human Ca2+ MAX IC50 calcium assay. Particulars: Table 5; read-out: H Ca2+ MAX (human CA2+ MAX IC50). The class given is cell-based. An excerpt: Human Ca2+ MAX IC50 may be measured using one of the commercially available calcium assay kits provided by Molecular Devices, Abcam, Bio-Rad, Biovision, Enzo Lifesciences, Abnova, Sigma-Aldrich, or others.

A short description of series [6]: GSH (glutathione) trapping of reactive metabolites. Type of series: in vitro ADME. The settings on record: in vitro incubation with glutathione as trapping reagent. On the procedure:
GSH trapping in a method for screening reactive metabolites for the potential to cause adverse drug reactions. Reactive metabolites may implicate clinical toxicity through drug compound bioactivation or inactivation of proteins. One such assessment utilizes in vitro incubations comprising glutathione (GSH) as a trapping reagent. LC/MS may be used to detect and characterize reactive intermediate formation as indicated by trapped glutathione adducts, as described by Yan et al., “Stable Isotope Trapping and High Throughput Screenings of Reactive Metabolites Using the Active MS Signature,” Anal. Chem. (2004), 76, 6835-6847.

The mark [7] stands for this setting: Table 3, read-out: hTRPA1 (IC50).
[8] abbreviates: calculated from hTRPA1 IC50 and hPPB, read-out: Corrected IC50 (hTRPA1 values corrected for hPPB).

In brackets after ≈: the same amount, converted by molar mass.

What is called solubility is the dissolved amount per volume that the medium holds. By IC50 is commonly meant the concentration that gives 50% inhibition.

T1 sequence (O75762 whole entry): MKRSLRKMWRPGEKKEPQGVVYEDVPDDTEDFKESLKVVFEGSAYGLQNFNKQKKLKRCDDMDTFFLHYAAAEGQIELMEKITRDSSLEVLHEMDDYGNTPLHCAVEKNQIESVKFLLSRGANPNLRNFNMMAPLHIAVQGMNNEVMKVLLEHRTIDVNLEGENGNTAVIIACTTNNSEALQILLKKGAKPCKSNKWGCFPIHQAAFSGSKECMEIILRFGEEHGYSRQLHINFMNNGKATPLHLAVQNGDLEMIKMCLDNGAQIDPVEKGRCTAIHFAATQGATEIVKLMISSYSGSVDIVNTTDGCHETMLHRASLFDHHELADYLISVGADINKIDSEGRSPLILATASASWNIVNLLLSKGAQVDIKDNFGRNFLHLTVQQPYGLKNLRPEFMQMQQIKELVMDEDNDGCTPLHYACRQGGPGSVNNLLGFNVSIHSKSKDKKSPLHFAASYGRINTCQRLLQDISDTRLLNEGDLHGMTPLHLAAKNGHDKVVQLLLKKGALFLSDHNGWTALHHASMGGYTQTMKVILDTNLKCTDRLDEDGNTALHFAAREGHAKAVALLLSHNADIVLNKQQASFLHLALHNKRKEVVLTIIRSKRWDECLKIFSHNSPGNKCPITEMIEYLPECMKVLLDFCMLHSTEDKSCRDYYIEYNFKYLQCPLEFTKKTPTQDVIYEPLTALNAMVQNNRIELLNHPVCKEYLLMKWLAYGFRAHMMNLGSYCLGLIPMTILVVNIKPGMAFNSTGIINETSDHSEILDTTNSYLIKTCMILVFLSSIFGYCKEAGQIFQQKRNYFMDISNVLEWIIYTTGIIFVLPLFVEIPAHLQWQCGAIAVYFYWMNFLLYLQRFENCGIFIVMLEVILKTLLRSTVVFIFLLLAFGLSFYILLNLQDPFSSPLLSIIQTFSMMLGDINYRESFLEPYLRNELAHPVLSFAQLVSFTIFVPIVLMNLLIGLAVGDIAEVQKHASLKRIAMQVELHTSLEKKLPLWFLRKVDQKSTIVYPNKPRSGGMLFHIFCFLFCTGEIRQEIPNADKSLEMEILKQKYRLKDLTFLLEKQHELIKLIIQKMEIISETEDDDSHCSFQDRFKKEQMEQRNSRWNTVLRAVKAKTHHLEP

Turning to `C[C@H]1[C@H](F)C[C@@H](C(=O)NCc2cc(-c3cnc(C(F)(F)F)nc3)ncc2C(F)(F)F)N1S(=O)(=O)c1ccc(F)cn1` (single isomer, unassigned) [Pyridyl Sulfonamide 1], the “HLM-CLhep (human liver microsome clearance)” value in series [1] (Table 3) is recorded as 4 mL/min/kg. Besides, the solubility in series [2] is 30 µM (≈ 18.3 µg/mL). In addition, the IC50 on human TRPA1 [3] (setting [7]) is 7.9 nM; at human TRPA1 [3] (setting [8]), 161 nM. For the same compound, the fraction unbound in series [4] was 0.049.
On to `C[C@H]1[C@H](F)C[C@@H](C(=O)NCc2cc(-c3cnc(C(F)(F)F)nc3)ncc2F)N1S(=O)(=O)c1ccc(F)cn1` (single isomer, unassigned) [Pyridyl Sulfonamide 2], for which, in series [2], the solubility was 4 µM (≈ 2.24 µg/mL). The IC50 at human TRPA1 [3] (setting [7]) was 404 nM; at human TRPA1 [3] (setting [8]), 5400 nM. Moreover, in series [4], the fraction unbound was 0.075.
In the case of `C[C@H]1[C@H](F)C[C@@H](C(=O)NCc2cc(-c3cnc(C(F)(F)F)nc3)cnc2C(F)F)N1S(=O)(=O)c1ccc(F)cn1` (single isomer, unassigned) [Pyridyl Sulfonamide 3], the figures for the IC50 at human TRPA1 [3] (setting [7]) and on human TRPA1 [3] (setting [8]) were 329 nM and 1940 nM, respectively. Moreover, in series [4], the fraction unbound is 0.17.
`C[C@H]1[C@H](F)C[C@@H](C(=O)NCc2cc(-c3cnc(C(F)(F)F)nc3)ncc2C(F)(F)F)N1S(=O)(=O)c1ccc(Cl)nc1` [Compound 5]: the “HLM (human liver microsome stability)” value in series [1] (Table 5) was found to be 6.6 mL/min/kg. Moreover, the IC50 on human TRPA1 [5] came out at 5 nM. Further, in series [6], the “GSH trapping (glutathione trapping)” value is listed as “positive”.

The values above are taken from US10695348B2, “Sulfonyl pyridyl TRP inhibitors” (Genentech, Inc., priority 2017, dated 2020).
